Measurements from US9128097B2, “Method and kit for assessing viable cells” (ChemoMetec A/S, priority 2008, dated 2015).

Key:
Format in all cases: cell-based
[1] = test system: Jurkat (A3) cells; assay: DACM / annexin V AF594 / SYTOX green staining of nocodazole treated Jurkat cells
Method: Materials and Methods. Jurkat (A3) cells were grown in T flasks at 37° C. in a humidified air atmosphere with 5% CO2 in RPMI (Invitrogen, #61870) supplemented with 10% heat-inactivated fetal bovine serum (Invitrogen, #10108-165). In order of investigating the effect of an apoptosis-inducing drug on DACM staining, Jurkat cells were treated with nocodazole (0.5 μM) for 16 hours. Nocodazole treated and untreated control cells were harvested washed and stained with annexin V Alexa Fluor 594 (Invitrogen, #A13203) according to manufacturer's instructions. Then cells were stained with DACM (20 μg/mL) (N-(7-dimethylamino-4-methyl-3-coumarinyl)-maleimide, WAKO Pure Chemical Industries, CAS no. 55145-14-7) and the nonviable stain SYTOX green (0.3 μM) (Invitrogen, #S7020). Immediately after staining with DACM cells were loaded into a chamber slide. The cells were investigated using an Olympus IX50 fluorescence microscope, and images (40× magnification) of the Annexin V Alexa Fluor 594, DACM and SYTOX green stained cells were captured using a Lumenera CCD camera combined with the following filter cubes (Olympus); U-MWG2 (green long pass: 510-550 nm), U-MNUA2 (UV band pass, 330-385 nm) and U-MNIB3 (blue band pass: 470-495 nm). Cells were also investigated using an in-house developed fluorescence microscope system with 2× magnification.

[2] = test system: Jurkat cells; assay: JC-1 mitochondrial potential detection apoptosis assay; settings: nocodazole treated Jurkat cells
Text: FIG. 22 The effect of the apoptotic drug nocodazole on the fluorescence intensity of stained Jurkat cells. 22A+22B) Fluorescence intensity of DACM stained untreated (22A) or nocodazole treated (22B) Jurkat cells. […] 22C+22D) Red vs. green fluorescence of JC-1 stained untreated (22C) and nocodazole treated (22D) Jurkat cells. The JC-1 stain is used for detecting apoptosis. JC-1 form red fluorescing aggregates in the mitochondria of healthy, non-apoptotic cells. In apoptotic cells JC-1 appears in its green monomeric, reduced form. […] This is in accordance with the results obtained using DACM to measure the thiol level; treatment with nocodazole causes a decrease in the fluorescence intensity of a subpopulation of cells.

[3] = test system: S. pombe; assay: DACM/PI staining of yeast, fluorescence microscopy; settings: 8 μg/ml DACM, no incubation
Method: (§1) Materials and Methods. S. pombe strain Eg328, h^90 smt-0 ura4-D18, (ATCC 90720; Styrkarsdottir U et al. Curr. Genet. 23: 184-186, 1993) was grown in a rotary shaker at 29° C. to a density of 1×10^7 cells/ml in EMM minimal medium (Moreno et al., Methods Enzym. 194: 795-823, 1991) supplemented with 10 mM of L-uridine (Sigma, U3750). S. cerevisiae wild strain was cultivated in YPD medium (Qbiogene, #4001-032) at 29° C. to a density of 5×10^7 cells/ml. S. pombe and S. cerevisiae cells were directly stained with 8 μg/ml DACM (N-(7-dimethylamino-4-methyl-3-coumarinyl)-maleimide, WAKO Pure Chemical Industries, CAS no. 55145-14-7 dissolved in DMSO) and 10 μg/ml propidium iodide (Applichem, #A2261.9010) prior to mounting on a microscope slide. Note: after addition of DACM and PI the cells were immediately analysed for fluorescence (no incubation). Olympus IX50 and NucleoCounter® NC3000™ was used for microscopy, and images were captured using a Lumenera CCD camera and in-house developed software. Propidium iodide and DCAM fluorescence were detected using the U-MWG2 and U-MNUA2 filter cubes of the Olympus microscope and filterset 5 and 1 of the NucleoCounter® NC-3000™.

[4] = test system: S. cerevisiae; assay: DACM/PI staining of yeast, fluorescence microscopy; settings: 8 μg/ml DACM, no incubation
Method: as §1

[5] = test system: Jurkat (JM) cells; assay: Staining of proliferating Jurkat cells with labelling agent and propidium iodide, fluorescence microscopy; settings: 10 μL agent (100 μg pr. mL DMSO) added to 90 μL cells, only exception PI positive cells
Method: (§2) Materials and Methods. Jurkat (JM) cells were grown at 37° C. in a humidified air atmosphere with 5% CO2 in RPMI (Invitrogen, #61870) supplemented with 10% heat-inactivated fetal bovine serum (Invitrogen, #10108-165). 90 μL proliferating Jurkat cells (cell density 1.2×10^6, 99% viable determined using the NC-100 NucleoCounter system following the manufacturer's (ChemoMetec A/S) protocol) were added 10 μL NAM (N-(9-acridinyl)maleimide, Sigma, #01665, CAS no. 49759-20-8) dissolved in DMSO (100 μg NAM pr. mL DMSO) and mixed by pipetting. Cells were loaded into a NucleoCassette, containing the DNA stain propidium iodide (PI). The cells were investigated using an Olympus IX50 fluorescence microscope, and images were captured using a Lumenera CCD camera and in-house developed software. PI and NAM fluorescence were detected using, respectively, U-MWG2 (green long pass: 510-550 nm) and U-MNUA2 (UV band pass, 330-385 nm) filter cubes (Olympus).
as §2, with “1.0×10^6,” for “1.2×10^6,”, “(ChemoMetec)” for “(ChemoMetec A/S)”, “CPM (7-diethylamino-3-[4′-maleimidylphenyl]-4-methylcoumarin, Chemodex Ltd.,” for “NAM (N-(9-acridinyl)maleimide, Sigma, #01665,”, “76877-33-3)” for “49759-20-8)”, “CPM” for “NAM”
as §2, with “1.1×10^6, 98%” for “1.2×10^6, 99%”, “(ChemoMetec)” for “(ChemoMetec A/S)”, “PM (N-(1-Pyrenyl)maleimide, Sigma P7908” for “NAM (N-(9-acridinyl)maleimide, Sigma, #01665,”, “42189-56-0)” for “49759-20-8)”, “PM” for “NAM”, “Cells were loaded into a NucleoCassette, containing the DNA stain propidium iodide (PI).” left out
Materials and Methods. […] 90 μL proliferating Jurkat cells (cell density 1.1×10^6, 98% viable determined using the NC-100 NucleoCounter system following the manufacturer's (ChemoMetec) protocol) were added 10 μL CPI (7-diethylamino-3-((4′-(iodoacetyl)amino)phenyl)-4-methylcoumarin, Sigma 78264 CAS no. 76877-34-4) dissolved in DMSO (100 μg CPI pr. mL DMSO) and mixed by pipetting. […] The cells were investigated using an Olympus IX50 fluorescence microscope, and images were captured using a Lumenera CCD camera and in-house developed software. PI and CPI fluorescence were detected using, respectively, U-MWG2 (green long pass: 510-550 nm) and U-MNUA2 (UV band pass, 330-385 nm) filter cubes (Olympus). […]

[6] = test system: Jurkat (A3) cells; assay: DACM staining of exponentially growing versus starved Jurkat cells; settings: viable cells (PI positive gated out); 2 days versus 10 days incubation
Method: Materials and Methods. Jurkat (A3) cells were grown in T flasks at 37° C. in a humidified air atmosphere with 5% CO2 in RPMI (Invitrogen, #61870) supplemented with 10% heat-inactivated fetal bovine serum (Invitrogen, #10108-165). To investigate the effect of cell starvation on DACM staining, exponentially proliferating cells from a newly split culture (2 days incubation) were investigated along with cells from a stationary culture (10 days incubation). 1.8 mL proliferating newly split Jurkat cells (cell density 3×10^5, 98% viable) were spun down and resuspended in 95 μL RPMI media and added 5 μL of a mixture of DACM (N-(7-dimethylamino-4-methyl-3-coumarinyl)-maleimide, WAKO Pure Chemical Industries, CAS no. 55145-14-7, 400 μg DACM pr. mL), acridine orange (1.2 μg/mL) and propidium iodide (500 μg/mL) and mixed by pipetting. Immediately after staining cells were loaded into a chamber slide. Images were captured using an in-house developed fluorescence microscope system with a Lumenera CCD camera (2× magnification) and were analysed using in-house developed software.

| SMILES | overall DACM fluorescence intensity (thiol level) of treated cells versus untreated ([1]; nocodazole 0.5 μM for 16 hours) | induction of apoptosis (mitochondrial depolarisation, JC-1 red/green fluorescence) [2] | staining of non-viable PI positive cells [3] | staining of viable PI negative cells [3] | staining of non-viable PI positive cells [4] | staining of viable PI negative cells [4] | staining of cells (UV filter) versus PI positive cells [5] | DACM fluorescence intensity, healthy versus starved cells [6] | DACM fluorescence intensity of viable, non-apoptotic cells ([1]; DACM 20 μg/mL) | DACM fluorescence intensity of nonviable cells ([1]; SYTOX green positive cells, DACM 20 μg/mL) | DACM fluorescence intensity of apoptotic cells ([1]; annexin V positive cells, DACM 20 μg/mL) |
| --- | --- | --- | --- | --- | --- | --- | --- | --- | --- | --- | --- |
| COC(=O)Nc1nc2ccc(C(=O)c3cccs3)cc2[nH]1 [nocodazole] | lower than the overall fluorescence intensity of untreated Jurkat cells | induces apoptosis (measured as depolarisation) in a cell subpopulation |  |  |  |  |  |  |  |  |  |
| Cc1c(N2C(=O)C=CC2=O)c(=O)oc2cc(N(C)C)ccc12 [DACM, N-(7-dimethylamino-4-methyl-3-coumarinyl)-maleimide] |  |  | stain very weakly with DACM | stain brightly with DACM | stain very weakly with DACM | stain brightly with DACM | nearly all cells were stained by DACM | higher for healthy (exponential growing) Jurkat cells than the starved Jurkat cells | highest fluorescence intensity | low fluorescence intensity | low fluorescence intensity |
